Measured values: patent US4229466A, “Sesquiterpene derivatives having anti-complementary activity” (Otsuka Pharmaceutical Co., Ltd., priority 1977, dated 1980)
Several values for one entry are separate records, joined by “and”; a condition that tells them apart may be missing. Equal entries are not always repeated.

How the values were obtained:
Heymann-type Nephritis = experiment: Therapeutic effects on Heymann-type nephritis (proteinuria); type: in vivo, male Wistar rats; conditions: for activity of curing Heymann-type nephritis: test of Table 4, result in words; for amount of proteinurea, Average: average of 3 replications; for amount of proteinurea: individual replication
Protocol: Male Wistar rats with a body weight of 180 to 200 g were used in the test. Rat kidney cortex was extracted, and homogenized with an equal quantity by volume of a physiological saline solution. The homogenate was centrifuged at 1500 G for 1 hour. The supernatant liquid was purified in accordance with the method of T. S. […] The resulting mixture was injected intraperitoneally into isologous rats in an amount of 0.5 ml per rat. […] (This period was about 6 to 8 weeks.) […] CP was used as a comparison compound, and physiological saline solution was used as a control. Three replications were conducted for each test compound.

[1] = system: Nephrotoxin-Type Nephritis; experiment: Therapeutic effect on nephrotoxin-type nephritis (proteinuria); type: in vivo, male Wistar rats; conditions: for inhibition of the primary reaction of nephrotoxin-type nephritis: same test as Table 3; for amount of proteinurea, Average: average of 3 replications; for amount of proteinurea, Average / amount of proteinurea: 5 mg per rat i.p. once daily, 7 days; for amount of proteinurea: individual replication
From the text: Rat nephrotoxin ("NT" for brevity) was obtained as described below. Rat kidney cortex was homogenized with an equal quantity of physiological saline. The homogenized mixture was mixed with Freund's complete adjuvant (a product of Difco Company) in a volume ratio of 1:1. Two milliliters of the resulting mixture was intramuscularly injected into a rabbit (body weight 3,100 g) to immunize the rabbit. A month and a half later, blood was taken from the heart of the rabbit and serum was obtained. The resulting serum was inactivated at 56° C. for 30 minutes, then salted out with a 40% saturated aqueous solution of ammonium sulfate, and fractionated. The γ-globulin (IgG) fraction was collected to obtain NT.
The evaluation was carried out using male Wistar rats with a body weight of 150 to 160 g with three replications for each test compound. The test compound was intraperitoneally administered once every 24 hours for seven days. One hour after the administration of the test compound on the third day, the NT was applied. The NT was intravenously injected in an amount of 1 ml at a tail vein of each rat. Chlorophyllin (CP) was used as a comparison compound, and physiological saline solution was used as a control.
The proteinuria level (total amount excreted into the urine over a 24 hour period) was measured using turbidometry employing bovine serum albumin as a control by means of sulfosalicylic acid.

[2] = system: complement serum (guinea pig complement); experiment: Anti-complement activity: 50% inhibition of hemolysis of sensitized erythrocytes; type: cell-based; conditions: 37° C., 60 minutes, guinea pig complement diluted 150 times; for IC50: Cavia porcellus, Erythrocyte, 1 h, OD413, read-out: Anti-Complement Activity Value (50% hemolysis inhibitory activity value)
Protocol: The anti-complement activity was measured and confirmed by the testing method described in Meneki Kagaku (Immuno-Chemistry), Yuichi Yamamura et al., Ed. pages 830-834, Asakura Shoten, Tokyo, Japan (1973). Specifically,a test tube was charged with 0.5 ml of an aqueous dispersion of each of the test compounds, 0.5 ml of sensitized erythrocytes (EA) containing 1×10^8 cells/ml, 1 ml of a 5-fold diluted solution of a Veronal buffer solution containing gelatin, Ca^++ and Mg^++ (GVB^++), and 0.5 ml of complement serum (guinea pig complement) diluted to 150 times with the GVB^++. The mixture was maintained hot at 37° C. for 60 minutes. Then, 5 ml of an ice-cold physiological saline solution was added thereto, and the mixture was centrifuged. […] The 50% hemolysis inhibitory activity value (γ/ml) measured by the above method is shown in Table 2 below for each test compound.

[3] = Before Administration, group of 5 mg per rat i.p.
[4] = Day 1, 5 mg per rat i.p. once a day, 7 days
[5] = Day 4, 5 mg per rat i.p. once a day, 7 days
[6] = Day 7, 5 mg per rat i.p. once a day, 7 days
[7] = Day 14, 5 mg per rat i.p. once a day, 7 days
[8] = Day 21, 5 mg per rat i.p. once a day, 7 days

What does the source list for `CC(=O)OCc1cc(OC(C)=O)c2c(c1COC(C)=O)OC1(C2)C(C)CCC2C(C)(C)C(OC(C)=O)C(OC(C)=O)CC21C` (stereo not shown) [Compound No. (25), 6,7-Diacetyloxy-2,5,5,8a-tetramethyl-1,2,3,4,4a,5,6,7,8,8a-decahydronaphthalene-1-spiro-2'-(6',7'-diacetyloxymethyl-4'-acetyloxy-2',3'-dihydrobenzofuran)]?
activity of curing Heymann-type nephritis (Heymann-type Nephritis): a substantial activity of curing Heymann-type nephritis; inhibition of the primary reaction of nephrotoxin-type nephritis ([1]; result in words): found to inhibit the primary reaction; IC50 [2]: 600 µg/mL

What does the source list for `CC1CCC2C(C)(C)C3OC(C)(C)OC3CC2(C)C12Cc1c(O)cc3c(c1O2)C(=O)OC3` (stereo not shown) [Compound No. (62), 4-Hydroxy-8-oxo-2,3,6,8-tetrahydro-furo[3,4-g]benzofuran-2-spiro-1'-(6',7'-isopropylidenedioxy-2',5',5',8'a-tetramethyl-1',2',3',4',4'a,5',6',7',8',8'a-decahydronaphthalene)]?
activity of curing Heymann-type nephritis (Heymann-type Nephritis): a substantial activity of curing Heymann-type nephritis; inhibition of the primary reaction of nephrotoxin-type nephritis ([1]; result in words): found to inhibit the primary reaction; IC50 [2]: 450 µg/mL

For `CC1CCC2C(C)(C)C(O)C(O)CC2(C)C12Cc1c(O)cc(CO)c(CO)c1O2` (stereo not shown) [(11), 6,7-Dihydroxy-2,5,5,8a-tetramethyl-1,2,3,4,4a,5,6,7,8,8a-decahydronaphthalene-1-spiro-2'-(6',7'-dihydroxymethyl-4'-hydroxy-2',3'-dihydrobenzofuran)], which “activity of curing Heymann-type nephritis” value (Heymann-type Nephritis) is on record?
The value was “a substantial activity of curing Heymann-type nephritis”.

And the “inhibition of the primary reaction of nephrotoxin-type nephritis” value (“inhibition” below) ([1]; result in words)?
Its value is “found to inhibit the primary reaction”.

What about the IC50 [2] of the same compound?
Its IC50 is 500 µg/mL.

For Chlorophyllin [reference compound], which “amount of proteinurea, Average” value (Heymann-type Nephritis; [3]) is on record?
Its value is 123 mg/day.

What about the amount of proteinurea (Heymann-type Nephritis; [3]) of the same compound?
Its amount of proteinurea is 123 mg/day and 117 mg/day and 129 mg/day.

What about the “amount of proteinurea, Average” value (Heymann-type Nephritis; [4]) of the same compound?
The value was 115 mg/day.

And the amount of proteinurea (Heymann-type Nephritis; [4])?
Its amount of proteinurea is 116 mg/day and 108 mg/day and 121 mg/day.

What about the “amount of proteinurea, Average” value (Heymann-type Nephritis; [5]) of the same compound?
The value was 62 mg/day.

What about the amount of proteinurea (Heymann-type Nephritis; [5]) of the same compound?
The amount of proteinurea was 72 mg/day and 63 mg/day and 52 mg/day.

And the “amount of proteinurea, Average” value (Heymann-type Nephritis; [6])?
Its value is 28 mg/day.

And the amount of proteinurea (Heymann-type Nephritis; [6])?
Its amount of proteinurea is 32 mg/day and 29 mg/day and 22 mg/day.

And the “amount of proteinurea, Average” value (Heymann-type Nephritis; [7])?
Its value is 14 mg/day.

And the amount of proteinurea (Heymann-type Nephritis; [7])?
Its amount of proteinurea is 16 mg/day and 12 mg/day and 15 mg/day.

And the “amount of proteinurea, Average” value (Heymann-type Nephritis; [8])?
Its value is 10 mg/day.

And the amount of proteinurea (Heymann-type Nephritis; [8])?
The amount of proteinurea was 10 mg/day and 8 mg/day and 13 mg/day.

And the “amount of proteinurea, Average” value ([1]; Day 1)?
Its value is 3.4 mg/day.

And the amount of proteinurea ([1]; Day 1)?
Its amount of proteinurea is 2.4 mg/day and 4.4 mg/day and 3.2 mg/day.

And the “amount of proteinurea, Average” value ([1]; Day 4)?
Its value is 2.1 mg/day.

What about the amount of proteinurea ([1]; Day 4) of the same compound?
The amount of proteinurea was 1.5 mg/day and 2.6 mg/day and 2.1 mg/day.

And the “amount of proteinurea, Average” value ([1]; Day 7)?
The value was 2.0 mg/day.

And the amount of proteinurea ([1]; Day 7)?
Its amount of proteinurea is 0.9 mg/day and 1.7 mg/day and 3.5 mg/day.

What about the “amount of proteinurea, Average” value ([1]; Day 10) of the same compound?
Its value is 8 mg/day.

And the amount of proteinurea ([1]; Day 10)?
Its amount of proteinurea is 9 mg/day and 8 mg/day and 6 mg/day.

And the “amount of proteinurea compared with healthy rat” value ([1]; from administration of NT to 10 days after, result in words)?
The value was “substantially the same as that of a healthy rat”.

And the “Anti-Complement Activity Value (50% hemolysis inhibitory activity value)” value ([2]; OD413)?
The value was 40 µg/mL.

For `CC1CCC2C(C)(C)C(O)C(O)CC2(C)C12Cc1c(O)cc(CO)c(C(=O)O)c1O2` (stereo not shown) [(8), 6,7-Dihydroxy-2,5,5,8a-tetramethyl-1,2,3,4,4a,5,6,7,8,8a-decahydronaphthalene-1-spiro-2'-(7'-carboxy-6'-hydroxymethyl-4'-hydroxy-2',3'-dihydrobenzofuran)], which “activity of curing Heymann-type nephritis” value (Heymann-type Nephritis) is on record?
Its value is “a substantial activity of curing Heymann-type nephritis”.

What about the “inhibition” value ([1]; result in words) of the same compound?
The value was “found to inhibit the primary reaction”.

And the IC50 [2]?
The IC50 was 125 µg/mL.

For `COc1cc(CO)c(CO)c2c1CC1(O2)C(C)CCC2C(C)(C)C(O)C(O)CC21C` (stereo not shown) [(12), 6,7-Dihydroxy-2,5,5,8a-tetramethyl-1,2,3,4,4a,5,6,7,8,8a-decahydronaphthalene-1-spiro-2'-(6',7'-dihydroxymethyl-4'-methoxy-2',3'-dihydrobenzofuran)], which “activity of curing Heymann-type nephritis” value (Heymann-type Nephritis) is on record?
Its value is “a substantial activity of curing Heymann-type nephritis”.

What about the “inhibition” value ([1]; result in words) of the same compound?
The value was “found to inhibit the primary reaction”.

What about the IC50 [2] of the same compound?
The IC50 was 250 µg/mL.
